Laboratory results from the Kinase Knowledgebase extract (Sharma et al. 2016).
Where “and” joins values, the source holds several entries; their conditions need not be identical. Equal values may be shown once.

molecular target: PIK3CD (Human) (UniProt O00329); assay: Enzyme Assay
Sequence (O00329 whole entry, looked up): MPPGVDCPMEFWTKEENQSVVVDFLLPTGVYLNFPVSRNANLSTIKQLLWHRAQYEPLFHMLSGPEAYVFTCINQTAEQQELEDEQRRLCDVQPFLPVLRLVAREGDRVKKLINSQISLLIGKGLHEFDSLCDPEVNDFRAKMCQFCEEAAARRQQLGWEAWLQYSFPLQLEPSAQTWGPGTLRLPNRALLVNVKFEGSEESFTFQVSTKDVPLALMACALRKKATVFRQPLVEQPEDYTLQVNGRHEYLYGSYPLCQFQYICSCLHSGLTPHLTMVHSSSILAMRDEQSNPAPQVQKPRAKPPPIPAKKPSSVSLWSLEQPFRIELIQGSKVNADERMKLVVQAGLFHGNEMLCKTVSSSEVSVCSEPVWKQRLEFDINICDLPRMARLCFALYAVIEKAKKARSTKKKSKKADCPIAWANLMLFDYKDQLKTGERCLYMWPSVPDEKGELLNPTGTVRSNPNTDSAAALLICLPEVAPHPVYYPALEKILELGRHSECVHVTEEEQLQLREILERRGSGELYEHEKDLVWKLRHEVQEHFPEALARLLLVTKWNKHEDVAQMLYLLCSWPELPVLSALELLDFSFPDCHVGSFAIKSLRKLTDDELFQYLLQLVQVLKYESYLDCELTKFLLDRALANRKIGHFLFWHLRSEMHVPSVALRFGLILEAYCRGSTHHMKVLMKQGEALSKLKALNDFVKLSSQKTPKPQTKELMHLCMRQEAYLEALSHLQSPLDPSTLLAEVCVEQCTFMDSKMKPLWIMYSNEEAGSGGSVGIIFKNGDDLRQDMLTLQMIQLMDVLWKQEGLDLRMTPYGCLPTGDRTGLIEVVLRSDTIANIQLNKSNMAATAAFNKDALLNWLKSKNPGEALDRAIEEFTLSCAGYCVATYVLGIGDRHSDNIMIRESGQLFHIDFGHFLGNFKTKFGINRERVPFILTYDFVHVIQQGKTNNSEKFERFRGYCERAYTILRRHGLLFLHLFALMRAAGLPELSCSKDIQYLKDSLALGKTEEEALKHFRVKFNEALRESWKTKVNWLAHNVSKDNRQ

| IC50 | Structure (SMILES) |
| --- | --- |
| 1.2 nM and 1.08 nM | Cc1nc(-c2cn3c(n2)-c2ccc(-c4cnn(C)c4C4CN(C(C)C)CCO4)cc2OCC3)n(C(C)C)n1 (centres undefined) |

molecular target: PIK3CA (human) (UniProt P42336); assay: Inhibition of PIK3CA Kinase Activity
Sequence (P42336 whole entry, looked up): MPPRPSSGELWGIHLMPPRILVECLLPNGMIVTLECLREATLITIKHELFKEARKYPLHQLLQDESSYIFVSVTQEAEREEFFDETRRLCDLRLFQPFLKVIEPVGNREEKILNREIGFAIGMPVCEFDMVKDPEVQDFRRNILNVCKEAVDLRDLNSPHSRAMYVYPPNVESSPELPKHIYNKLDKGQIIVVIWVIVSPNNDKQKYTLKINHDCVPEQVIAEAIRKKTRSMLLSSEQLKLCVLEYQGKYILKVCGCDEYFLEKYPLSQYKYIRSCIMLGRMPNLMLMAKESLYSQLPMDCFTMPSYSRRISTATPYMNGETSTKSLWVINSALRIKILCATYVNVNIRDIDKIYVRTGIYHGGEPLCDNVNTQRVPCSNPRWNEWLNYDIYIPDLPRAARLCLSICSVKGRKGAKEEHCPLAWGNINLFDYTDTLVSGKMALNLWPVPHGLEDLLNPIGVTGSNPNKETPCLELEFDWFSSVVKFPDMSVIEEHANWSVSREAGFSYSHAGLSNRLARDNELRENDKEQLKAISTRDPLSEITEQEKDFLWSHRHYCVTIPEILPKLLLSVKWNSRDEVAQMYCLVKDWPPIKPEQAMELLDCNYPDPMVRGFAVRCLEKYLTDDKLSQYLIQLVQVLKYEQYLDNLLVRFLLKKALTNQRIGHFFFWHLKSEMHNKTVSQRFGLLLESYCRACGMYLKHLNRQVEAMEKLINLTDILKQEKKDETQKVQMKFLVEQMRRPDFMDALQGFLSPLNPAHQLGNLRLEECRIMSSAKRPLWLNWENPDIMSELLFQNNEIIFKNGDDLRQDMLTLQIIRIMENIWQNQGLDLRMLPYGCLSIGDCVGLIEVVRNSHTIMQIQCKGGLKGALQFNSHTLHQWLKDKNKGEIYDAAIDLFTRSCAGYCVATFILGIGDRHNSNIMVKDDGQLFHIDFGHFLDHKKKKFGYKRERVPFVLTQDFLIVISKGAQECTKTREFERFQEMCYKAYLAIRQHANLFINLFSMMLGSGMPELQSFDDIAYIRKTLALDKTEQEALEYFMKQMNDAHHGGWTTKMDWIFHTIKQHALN

| Structure (SMILES) | IC50 |
| --- | --- |
| Cc1nc(-c2cn3c(n2)-c2ccc(-c4cnn(C)c4C4CN(C(C)C)CCO4)cc2OCC3)n(C(C)C)n1 (centres undefined) | 17.9 nM and 107 nM and 41.5 nM |
| Cc1nc(-c2cn3c(n2)-c2cc(-c4ccnn4[C@@H]4CCCN(C(C)(C)CO)C4)c(F)cc2OCC3)n(C(C)C)n1 | 47.4 nM and 19.3 nM |
| Cc1nc(-c2cn3c(n2)-c2ccc(-c4cnn(C(C)C)c4CN4CCN(C(C)(C)C)CC4)cc2OCC3)n(C(C)C)n1 | 111 nM |
| Cc1nc(-c2cn3c(n2)-c2ccc(-c4ccnn4C4CC(C)N(C)C(C)C4)cc2OCC3)n(C(C)C)n1 (centres undefined) | 100 nM |

Next, values leading:

| IC50 | Structure (SMILES) |
| --- | --- |
| 70.7 nM | Cc1nc(-c2cn3c(n2)-c2ccc(OC4(CC5CC5)CN(C(C)C)C4)cc2OCC3)n(C(C)C)n1 |
| 21.9 nM | Cc1nc(-c2cn3c(n2)-c2ccc(N4CCC[C@@H]4C4CCN(C(C)C)CC4)cc2OCC3)n(C(C)C)n1 |
| 3.41 nM | Cc1nc(-c2cn3c(n2)-c2ccc(N4CCC4[C@@H]4CCCN(C(C)C)C4)cc2OCC3)n(C(C)C)n1 (some centres undefined) |
| 43 nM | Cc1nc(-c2cn3c(n2)-c2ccc(-c4ccnn4[C@H]4CCCN(C(C)(C)CO)C4)cc2OCC3)n(C(C)C)n1 |
